Measurements from article PMC7084386, “Sulfonamide Inhibition Studies of an α-Carbonic Anhydrase from Schistosoma mansoni, a Platyhelminth Parasite Responsible for Schistosomiasis” (International Journal of Molecular Sciences, 2020).

The compounds below were run against T1, SmCA (Schistosoma mansoni, UniProt A0A4Y5UX87) (assay: stopped-flow CO2 hydrase assay). Conditions: not given.
T1 construct: rSmCA N21-A298, signal peptide and C-terminal GPI-anchoring signal removed; Igk leader, C-terminal myc and His6 tags; secreted by CHO-S cells, IMAC; codon-optimized gene; native ~37 kDa GPI-linked glycoprotein
T1 sequence (A0A4Y5UX87 21-298): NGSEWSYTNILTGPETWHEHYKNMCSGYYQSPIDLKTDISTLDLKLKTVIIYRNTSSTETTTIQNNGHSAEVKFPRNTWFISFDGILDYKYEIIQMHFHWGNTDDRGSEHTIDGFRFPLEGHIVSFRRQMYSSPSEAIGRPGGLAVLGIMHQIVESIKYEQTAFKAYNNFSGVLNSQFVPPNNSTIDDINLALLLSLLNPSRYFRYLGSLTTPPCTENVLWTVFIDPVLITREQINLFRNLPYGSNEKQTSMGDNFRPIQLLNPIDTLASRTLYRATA
Type: biochemical
Text: stopped-flow CO2 hydrase assay on SmCA

Structure (SMILES) | Ki [nM]
NCCc1ccc(S(N)(=O)=O)cc1 [compound 6, 6] | 7240 ± 144

Same assay, conditions: read-out: SmCA ^b

Structure (SMILES) | Ki [nM]
Nc1cccc(S(N)(=O)=O)c1 [compound 1, 1] | 8420 ± 177
Nc1ccc(S(N)(=O)=O)cc1 [compound 2, 2] | 6820 ± 150
NS(=O)(=O)c1cccc(S(N)(=O)=O)c1 [compound 3, 3] | 916 ± 23.8
Cc1ccc(S(N)(=O)=O)cc1 [compound 4, 4] | 4530 ± 90
NCc1ccc(S(N)(=O)=O)cc1 [compound 5, 5] | 9560 ± 191
Nc1ccc(S(N)(=O)=O)cc1F [compound 7, 7] | 3190 ± 70
Nc1ccc(S(N)(=O)=O)cc1Cl [compound 8, 8] | 737 ± 19.1
Nc1ccc(S(N)(=O)=O)cc1Br [compound 9, 9] | 808 ± 16.9
NS(=O)(=O)c1cc(Cl)cc(Cl)c1O [compound 10, 10] | 9270 ± 185
Nc1cc(C(F)(F)F)c(S(N)(=O)=O)cc1S(N)(=O)=O [compound 11, 11] | 183 ± 9.1
Nc1cc(Cl)c(S(N)(=O)=O)cc1S(N)(=O)=O [compound 12, 12] | 645 ± 19.9
Nc1nnc(S(N)(=O)=O)s1 [compound 13, 13] | 137 ± 6.5
Cn1nc(S(N)(=O)=O)sc1=N [compound 14, 14] | 325 ± 6.5
NS(=O)(=O)c1ccc(O)cc1 [compound 15, 15] | 758 ± 26.5
NS(=O)(=O)c1ccc(CO)cc1 [compound 16, 16] | 1460 ± 32.1
NS(=O)(=O)c1ccc(CCO)cc1 [compound 17, 17] | 606 ± 21.3
NS(=O)(=O)c1ccc(C(=O)O)cc1 [compound 18, 18] | 821
Nc1nccc(Nc2ccc(S(N)(=O)=O)cc2)n1 [compound 19, 19] | 1830 ± 36.6
Nc1ccc(S(=O)(=O)Nc2nnc(S(N)(=O)=O)s2)cc1 [compound 20, 20] | 124 ± 5.9
NS(=O)(=O)c1ccc(CCNS(=O)(=O)c2ccc([N+](=O)[O-])cc2CO)cc1 [compound 21, 21] | 163 ± 6.5
Nc1ccc(S(=O)(=O)Nc2ccc(S(N)(=O)=O)cc2)cc1 [compound 22, 22] | 550 ± 14.8
Nc1ccc(S(=O)(=O)NCc2ccc(S(N)(=O)=O)cc2)cc1 [compound 23, 23] | 524 ± 15.7
Nc1ccc(S(=O)(=O)NCCc2ccc(S(N)(=O)=O)cc2)cc1 [compound 24, 24] | 183 ± 4.5
